Results from patent EP0372889A1, “Doxorubicin solutions” (Bristol-Myers Squibb Company, priority 1988, dated 1990).
Structures can show the parent of a compound that is named as a salt. Where two headings read alike, the source gives them in different places. Values belong to the compound of their own block, whether it stands above or below them.

Assays:
[1] = format: physicochemical
Text: It is also necessary for optimum stability of the solutions, especially at elevated temperatures which may be encountered at some time during the life of the product, e.g. during shipping, to utilize an antioxidant. We have tested a number of antioxidants including α-tocopherol, tert-butylhydroquinone (TBHQ), sodium formaldehyde bisulfite, butylated hydroxy anisole (BHA), butylated hydroxy toluene (BHT), sodium bisulfite and propyl gallate. […] This finding was disclosed and claimed in our EP-A-88111434.2 and in co-pending U.S. application Serial Number 246,602 filed September 20, 1988 and incorporated by reference herein in their entirety. […] Generally, an amount of sodium acetone bisulfite is employed in the range of about 0.1 to 20 mg/ml with about 2 mg/ml being most preferred.
Despite reports of potency losses of doxorubicin HCl solutions via photolytic degradation and adsorption to container walls, we have not noted any significant loss of potency due to container adsorption or sensitivity to normal room light with our solutions. Glass vials may conveniently be used as the container.
As an example of a stable non-aqueous solution of doxorubicin, 20 mg/ml of doxorubicin hydrochloride, 0.2 mg/ml citric acid (anhydrous), 2.0 mg/ml of sodium acetone bisulfite and a solvent medium consisting of deaerated propylene glycol/water (90:10 v/v) are added to a Type 1 flint vial, the vial is purged with nitrogen and then sealed with a suitable teflon-coated stopper. […] Substantially equivalent results are obtained when 1,2-dihydroxybutane and 1,3-dihydroxypropane solvent systems are used.

[2] = Solubility of doxorubicin HCl in non-aqueous solvents; format: physicochemical; conditions: for solubility: organic solvent or mixture
Procedure: Doxorubicin HCl at room temperature has a solubility of less than 5 mg/ml in propylene glycol, 1,2-dihydroxybutane and 1,3-dihydroxypropane. […] Solubility of doxorubicin HCl can be increased to about 20 mg/ml in the above-mentioned solvents by addition of 5-10% (v/v) water.

[3] = cited from earlier work

stabilization of doxorubicin solutions by antioxidant [1]: resulted in the desired stability
SMILES: Cc1c(C)c2c(c(C)c1O)CCC(C)(CCCC(C)CCCC(C)CCCC(C)C)O2 (stereo not drawn) [α-tocopherol]

stabilization of doxorubicin solutions by antioxidant [1]: resulted in the desired stability
SMILES: O=S(=O)(O)CO [sodium formaldehyde bisulfite]

SMILES: COc1cccc2c1C(=O)c1c(O)c3c(c(O)c1C2=O)C[C@@](O)(C(=O)CO)C[C@@H]3O[C@H]1C[C@H](N)[C@H](O)[C@H](C)O1 [Doxorubicin HCl, doxorubicin hydrochloride]
chemical stability of solutions ([2]; glycerol formal, 2-pyrrolidinone and 1-methyl-2-pyrrolidinone): chemically unstable
solubility ([2]; glycerol formal, pyrrolidinones, glycerol formal, 2-pyrrolidinone and 1-methyl-2-pyrrolidinone, read-out: solution concentration produced): ≥ 5000 µg/mL
solubility ([2]; glycols with 5-10% water, propylene glycol, 1,2-dihydroxybutane, 1,3-dihydroxypropane with addition of 5-10% (v/v) water, read-out: Solubility): ~20000 µg/mL
solubility ([2]; propylene glycol, butanediol, propanediol, room temperature, in propylene glycol, 1,2-dihydroxybutane and 1,3-dihydroxypropane, read-out: solubility): < 5000 µg/mL
solubility ([2]; propylene glycol, butanediol, propanediol, same solvents, short-term (0.5-1 hour) warming (60-80°C) with vigorous stirring, read-out: solubility): ~10000 µg/mL
physical stability of solution on cold storage ([2]; stored at 4°C to -20°C, seeding with crystalline doxorubicin HCl does not affect crystallization): remains in solution
potency loss ([2]; upon short-term (0.5-1 hour) warming (60-80°C) in propylene glycol, 1,2-dihydroxybutane, 1,3-dihydroxypropane): no potency loss
solubility ([2]; various organic solvents, with heating, polyethylene glycols, ethanol, benzyl alcohol, dimethylisosorbide, ethyl lactate, Solketol, Cremophors, Pluronics, read-out: Solubilities): < 5000 µg/mL
potency retained ([1]; 20 mg/ml, 0.2 mg/ml citric acid, 2.0 mg/ml sodium acetone bisulfite, propylene glycol/water (90:10 v/v), nitrogen purged, 2 weeks at 40°C, 20160 min): 97.2%
potency retained ([1]; same solution, 4 weeks at 40°C, 40320 min): 93.4%
potency retained ([1]; same solution, 12 weeks at 40°C, 120960 min): 88.2%
acceptable shelf-life (≦10% potency loss) ([1]; same solution, 37°C): at least four
acceptable shelf-life (≦10% potency loss) ([1]; same solution, room temperature): at least 18 months
stable ([3]; commercial preservative-free ready-to-use aqueous solution, 4°C, manufacturer): 18 months
undesirable and potentially toxic degradation products ([3]; commercial ready-to-use aqueous solution, at the end of 18 months at 4°C, 788400 min): up to 10%
remains stable ([3]; reconstituted solution in 0.9% NaCl solution, room temperature or 5°C, Ketcyhum, et al.): seven

stabilization of doxorubicin solutions by antioxidant ([1]; elevated temperatures as well as room temperature (25°C) or below): resulted in the desired stability
SMILES: CC(C)(C)c1cc(O)ccc1O [tert-butylhydroquinone]
